Data set [1] can be described thus: Kinetic assay: biolayer interferometry binding to biotin-labeled PIP2. As to conditions: 24° C., read-out: dissociation constant. The text has this: FIGS. 10A-10C: (FIG. 10A) The PIP2-binding motif (SEQ ID NO: 12) on the ? hosphorylation ? ite ? omain (PSD) of MARCKS. FIG. 10A discloses the MH domain as SEQ ID NO: 86). (FIG. 10B) Biolayer interferometry analysis of the binding of the MPS peptide to biotin-labeled PIP2. (FIG. 10C) PIP3 levels in IPF fibroblast cells with PBS or MPS treatment. * p<0.05 versus PBS (n=3).
Real-time binding of the peptide mimicking the phosphorylation site domain of MARCKS (MPS peptide, amino acids 151 to 175 from the wild-type MARCKS protein) to biotin-labeled PIP2 was evaluated using biolayer interferometry (BLI) on an Octet RED96 system (ForteBio) following the manufacturer's instructions. Briefly, the ligand, PIP2 labeled with biotin at the sn-1 position (1000 nM in ddH2O), was immobilized on Super Streptavidin (SSA) biosensors for 10 minutes. A binding assay was performed with the MPS analyte at various concentrations from 0 to 1000 nM in ddH2O. Association and dissociation were monitored for 5 minutes. Assays were performed at 24° C. Data were analyzed using Octet Data Analysis Software 7.0 (ForteBio).

A further data set concerns IPF fibroblast cells. The data set can be described thus: cells. The class given is cell-based, human. As to conditions: 72 h. How it is done: FIG. 14: Comparison of MPS-12042 (SEQ ID NO: 45) versus know tyrosine kinase inhibitor (TKLs) on the treatment of IPF fibroblast cells. Both normal and IPF lung fibroblast cells were treated with various drugs. After 72 hours, cells were subjected to MTT assays and IC50 for each drug was determined.
Human primary fibroblast cells were obtained from airway tissues provided from the UC Davis Medical Hospital (Sacramento, Calif.) with consent. The protocol for human tissue procurement and usage were periodically reviewed and approved by the University Human Subject Research Review Committee. Primary fibroblast cell lines, IPF-1 and IPF-2 cells, were established from IPF patients. Cells were obtained from lung biopsies and the diagnosis of IPF was supported by patient history, physical examination, pulmonary function tests, and typical high-resolution chest computed tomography findings of IPF. […] All patients fulfilled the criteria for the diagnosis of IPF as established by the American Thoracic Society and European Respiratory Society. Non-fibrotic primary control adult human lung fibroblast lines, Normal-1 and Normal-2 cells were used. These lines were established from normal lung tissue or histologically normal lung tissue adjacent to carcinoid tumor. The IPF cell line, LL97A, was purchased from the American Type Culture Collection (ATCC) (Manassas, Va.). Lung fibroblast lines were cultured in high-glucose DMEM or RPMI-1640 medium with 10% fetal bovine serum and 1% penicillin-streptomycin at 37° C. in a humidified atmosphere of 5% CO2. Fibroblasts were used between passages 4 and 8. Cells were characterized as fibroblasts as described^26.
Cells were seeded onto 96-well plates at a density of 5-10×10^3 cells per well and cultured for the indicated treatment. Cell proliferation was evaluated using a MTS assay kit (Promega, Madison, Wis.). Twenty microliters of the combined MTS/PMS solution was added into each well, incubated for 3 hours at 37° C., and the absorbance was measured at 490 nm by using an ELISA reader. For Trypan blue test, cells were plated on 12-well plates and treated with the indicated chemotherapeutic agents. After 72 hours, both attached and detached cells were collected and then stained with 0.2% trypan blue (0.1% final concentration), and the number of trypan blue-positive and -negative cells was counted using a haemocytometer under low-power microscopy. For colony-forming assays, 200 cells were seeded in each well of six-well plates. IPF-1 or IPF-2 primary cells were treated with peptides at the indicated concentrations for 10 days. Colonies were stained using 0.001% crystal violet and the number of colonies with a diameter greater than 0.5 mm was counted under an inverted microscope.

For data set [2], the system named is normal human epithelial cells. As to conditions: earlier work of Applicant (refs 14, 16); cited from earlier work.
The subject of data set [3] is bleomycin-induced pulmonary fibrosis. The data set can be described thus: Bleomycin-induced pulmonary fibrosis. Format: in vivo, C57BL/6J mice. As to conditions: 28 mg/kg i.p. every other day, Masson's trichrome staining after 22 days. How it is done:
FIGS. 20A and 20B show suppressive effects of MPS peptide on pulmonary fibrosis in vivo. C57BL/6 mice were intraperitoneally given either PBS, nintedanib (28 mg/kg), MPS peptide (28 mg/kg) or MPS-12042 (7 mg/kg) at the dosage of every two days after 9 days of intratracheal exposure with one shot of saline or bleomycin (33 μg in […] of saline, n=5). (FIG. 20A) Representative Masson trichrome and immunohistochemical staining of phospho-MARCKS (Ser159/163) and phospho-AKT (Ser473) (n=6). (FIG. 20B) Hydroxyproline level in the left lung of mice as described above was determined by a hydroxyproline ELISA assay (mean±SD, *p<0.05).
MPS peptide potentially serves as an antifibrotic agent in bleomycin-induced pulmonary fibrosis. Bleomycin remains the standard agent for induction of experimental pulmonary fibrosis in animals^23. Thus, 8-week-old female C57BL/6J mice received saline or bleomycin intratracheally (33 μg in […] of saline) as previously described^23. Lung specimens from bleomycin- or saline-treated mice were collected and subjected to immunofluorescence staining. […] Next, lung fibroblast cells isolated from saline- or bleomycin-treated mice (two mice fibroblast cell lines were gifts from Dr. Sem H. Phan, University of Michigan School of Medicine, MI) were incubated with either 100 μM control or MPS peptide for 48 hours. […]

Where no end group is shown, it is not given here.

As for KKKKKRFSFKKSFKLSGFSFKKNKK [MPS peptide], the Kd in data set [1] turned out to be 0.0176 µM. Further, the 50% inhibitory concentration (IC50) – broadly, the concentration that inhibits the measured activity by half – in the data set on IPF fibroblast cells fell in the range of 125 to 178 µM. The “cytotoxic effect on normal human epithelial cells” value in data set [2] was “no cytotoxic effect”. The “fibroblastic lesions and deposited extracellular matrix in the lungs” value in data set [3] was “decreases of fibroblastic lesions and deposited extracellular matrix”.

The values are drawn from patent US20220267390A1, “MPS MODIFIED PEPTIDES AND USE THEREOF” (The Regents of the University of California, priority 2019, published 2022).
